Publication PMC8512147, “Multifunctional Small Molecules as Potential Anti-Alzheimer’s Disease Agents” (Molecules, 2021)

Legend:
[1] = Protonation constants by pH-potentiometric / UV–Vis spectrophotometric titration; format: physicochemical; settings: pH 7.4, CL = 10^−5 M
Experimental: As concerns the metal chelation studies, potassium hydrogen phthalate (C8H5KO4, p.a.) was acquired from BDH, whereas dimethylsulfoxide (DMSO, dried, p.a.) and potassium chloride (KCl, p.a.) were supplied by Sigma-Aldrich. Aqueous solutions of metal ions were prepared starting from 1000 ppm standards (Titrisol, Sigma-Aldrich), to obtain solutions FeCl3 0.018 M and CuCl2 0.015 M. The metal content of solutions was evaluated by atomic absorption. Iron stock solution was prepared with an excess of acid chloride to avoid hydrolysis and its concentration in HCl was determined by the usual standard-addition method using 0.1M HCl (Titrisol). The 0.1M HCl solution, used in calibration of the glass electrode and in spectrophotometric titrations, was prepared from a Titrisol ampoule. […]
The spectrophotometric measurements were carried out in a 250–450 nm wavelength range at pH ca. 2.5–11.8. Under the stated experimental conditions, the pKw value (14.27) was determined and subsequently used in the computations. […] The metal hydrolysis model was determined under the defined experimental conditions (I = 0.1 M KCl, 20% w/w DMSO/H2O, T = 25.0 ± 0.1 °C) and the following values of stability constants were included in the fitting of experimental data towards the equilibrium models related to the Fe^3+/L and Cu^2+/L systems: log β (FeH-2) = −6.78, log β (FeH-3) = −10.78; log β (Cu2H-2) = −9.94. […]

[2] = Radical scavenging activity, DPPH method; format: biochemical; settings: MeOH, 30 min, r.t., mean ± SD of 3 independent experiments
Text: Commercial ferulic acid (FA) and all the newly synthesized compounds 1a–e were studied for their radical scavenging activity, following the protocol previously reported. The activity of each compound is expressed as EC50 and is related to its interaction with the free stable radical 2,2-diphenyl-1-picrylhydrazyl (DPPH•).
For the physicochemical and biological studies, analytical grade reagents and solvents were supplied by Sigma-Aldrich (St. Louis, MO, USA), Fluka (Buchs, Switzerland) and Acros (Geel, Belgium). They were used as received without any purification. The antioxidant activity assay was performed in a quartz cell of 1 cm path length with a Perkin-Elmer Lambda 35 UV–Vis spectrophotometer equipped with a temperature programmer PTP1+1 Peltier System (T = 25.0 ± 0.1 °C).
Compounds were evaluated for their radical scavenging activity by the Blois method using DPPH (2,2-diphenyl-1-picrylhydrazyl), a stable free-radical. It absorbs in methanol solution at 517–520 nm and it is a scavenger for other radicals converting itself in the reduced form DPPHH. The assay consists of preparing solutions of increasing concentration of each compound starting from a stock solution (2–3 × 10^−4 M), adding to them 2.5 mL DPPH (0.002% in MeOH, 50–100 µM) and the necessary volume of MeOH to reach the final volume 3.5 mL for each sample. The control sample was made up of DPPH and MeOH. Solutions were protected from light at r.t. for 30 min and then absorbance was measured at 517 nm with a Perkin Elmer Lambda 35 UV–Vis spectrophotometer, using methanolic solution as the blank in the other cell. All the studied compounds have good solubility in MeOH, so their solutions could be prepared. The assay was repeated three times for all compounds and the antioxidant activity, expressed as EC50, was calculated by Equation (1). %AA = ((ADPPH − Asample)/ADPPH) × 100,(1)

[3] = Fe^3+ complexation, potentiometric / spectrophotometric titration; format: physicochemical; settings: for log β (FemHhLl), species (101) / log β (FemHhLl), species (102): pH-potentiometric (FA), UV–Vis (1a, 1d); for pM (Fe^3+), pM = −log [M]: pH 7.4, CL/CM = 10, CM = 10^−6 M
Text: The chelating ability of FA and of selected compounds 1a and 1d was studied by using the same experimental techniques (potentiometry, UV–Vis spectrophotometry) and experimental medium used for the titration of the ligand alone (20% w/w DMSO/water).
Alterations in the deprotonation profiles of the ligand titration curves due to the presence of the metal ions are evident in Figure 2, since the curves for the M/L systems appear well below that of FA for a > −1 (M = Fe) or a > 0 (M = Cu). This evidence supports the formation of metal complexes with the deprotonated (L^−) and mono-protonated (HL) forms of the ligand, whose stability order (Fe > Cu) follows the expected trend. Equilibrium models obtained from the fitting analysis of the potentiometric curves (M = Fe, Cu) and the UV–Vis spectral data (M = Fe, Cu) are reported in Table 2.
Both compounds 1a and 1d have similar chelating capacities towards iron and copper, which are also analogous to those of FA.
As concerns the metal chelation studies, potassium hydrogen phthalate (C8H5KO4, p.a.) was acquired from BDH, whereas dimethylsulfoxide (DMSO, dried, p.a.) and potassium chloride (KCl, p.a.) were supplied by Sigma-Aldrich. Aqueous solutions of metal ions were prepared starting from 1000 ppm standards (Titrisol, Sigma-Aldrich), to obtain solutions FeCl3 0.018 M and CuCl2 0.015 M. The metal content of solutions was evaluated by atomic absorption. Iron stock solution was prepared with an excess of acid chloride to avoid hydrolysis and its concentration in HCl was determined by the usual standard-addition method using 0.1M HCl (Titrisol). The 0.1M HCl solution, used in calibration of the glass electrode and in spectrophotometric titrations, was prepared from a Titrisol ampoule. The titrant was prepared from carbonate free commercial concentrate (Titrisol, KOH 0.1 M ampoules). The KOH solution was standardized by titration with a solution of potassium hydrogen phthalate using Gran’s method and it was rejected when the percentage of carbonate was greater than 0.5% of the total amount of base. The potentiometric studies were performed with an automated potentiometric apparatus controlled by PASAT program and containing a Crison micropH 2002 millivoltmeter, a Crison microBu 2031 burette and a Haake thermostatic bath (T = 25.0 ± 0.1 °C). The spectrophotometric titrations were carried out with a Perkin-Elmer Lambda 35 spectrophotometer.
Both glass and Ag/AgCl reference electrodes were previously conditioned in different DMSO/H2O mixtures of increasing DMSO % concentration and the response of the glass electrode was evaluated by strong acid–strong base (HCl/KOH) calibrations with the determination of the Nernst parameters by Gran’s method. […] The spectrophotometric measurements were carried out in a 250–450 nm wavelength range at pH ca. 2.5–11.8. Under the stated experimental conditions, the pKw value (14.27) was determined and subsequently used in the computations. The stepwise protonation constants of the ligands, Ki = [HiL]/[Hi-1L][H], and the overall metal complex stability constants, β (MmHhLl) = [MmHhLl]/[M]^m[H]^h[L]^l, were calculated by fitting the pH-potentiometric and spectrophotometric data with, respectively, the Hyperquad 2008 [41] and Psequad programs. The metal hydrolysis model was determined under the defined experimental conditions (I = 0.1 M KCl, 20% w/w DMSO/H2O, T = 25.0 ± 0.1 °C) and the following values of stability constants were included in the fitting of experimental data towards the equilibrium models related to the Fe^3+/L and Cu^2+/L systems: log β (FeH-2) = −6.78, log β (FeH-3) = −10.78; log β (Cu2H-2) = −9.94. The species distribution curves were obtained with the Hyss program.

[4] = T = 25.0 ± 0.1 °C, I = 0.1 M KCl, 20% w/w DMSO/water

predominant species neutral HL at physiological conditions [1]	melting point	EC50 [2]	log β (FemHhLl), species (101) [3, 4]	log β (FemHhLl), species (102) [3, 4]	pM (Fe^3+), pM = −log [M] [3]	FeL in the Fe^3+/L system ([3]; pH ca. 2, species distribution)	log β (FemHhLl), species (1–22) [3, 4]	Compound
96%	58 °C	34 ± 1 µM	16.49(3)	23.69(4)	17.6	100%	–	COc1cc(/C=C/C(=O)NOCc2ccccc2OC)ccc1O [Compound 1a, (E)-3-(4-hydroxy-3-methoxyphenyl)-N-((2-methoxybenzyl)oxy)acrylamide]
97%	47 to 48 °C	33 ± 1 µM	15.42(7)	25.43(5)	18.2	–	8.50(5)	COc1cc(/C=C/C(=O)NOCc2cccc(Cl)c2)ccc1O [Compound 1d, (E)-N-((3-chlorobenzyl)oxy)-3-(4-hydroxy-3-methoxyphenyl)acrylamide]
